Test results as given in ChEMBL document CHEMBL1147040, “Potent inhibition of HIV-1 replication by novel non-peptidyl small molecule inhibitors of protease dimerization” (J Biol Chem, 2007).
Active and inactive are the calls of the source. The calls are words filed in the database; no cut-off is given here.

How the values were obtained:
[1] = molecular target: Protease (Human immunodeficiency virus 1) (UniProt Q9YQ12); assay: Inhibition of HIV1 protease dimerization in COS7 cells at 1 uM
Protease = Protease (Human immunodeficiency virus 1, UniProt Q9YQ12); assay: Inhibition of HIV1 protease
Sequence of Protease (Q9YQ12 whole entry): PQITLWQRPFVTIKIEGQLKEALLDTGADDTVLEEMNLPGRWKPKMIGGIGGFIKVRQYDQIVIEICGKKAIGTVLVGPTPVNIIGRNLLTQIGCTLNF

[2] = tested on: Human immunodeficiency virus 1; assay: Antiviral activity against HIV1 LAI in MT2 cells; format: functional, organism-based; conditions: Human immunodeficiency virus 1, LAI

Sequence of Protease (Human immunodeficiency virus 1) (Q9YQ12 as listed by the source): as the sequence (Q9YQ12 whole entry) above

| Compound | Activity [1] | Ki (Protease) [nM] | IC50 [2] [nM] |
| --- | --- | --- | --- |
| Cc1nc(COc2ccc(C[C@H](NC(=O)O[C@H]3CO[C@H]4OCC[C@H]43)[C@H](O)CN(CC(C)C)S(=O)(=O)c3ccc4c(c3)OCO4)cc2)cs1 [BRECANAVIR] | Active | 0.0068 | 0.2 |
| CC(C)CN(C[C@@H](O)[C@H](Cc1ccccc1)NC(=O)O[C@H]1CO[C@H]2OCC[C@H]21)S(=O)(=O)c1ccc2c(c1)OCO2 | Active | 0.014 | 0.4 |
| COc1ccc(S(=O)(=O)N(CC(C)C)C[C@@H](O)[C@H](Cc2ccccc2)NC(=O)O[C@H]2CO[C@H]3OCC[C@H]32)cc1 | Active | – | 0.3 |
| CCC[C@@]1(CCc2ccccc2)CC(O)=C([C@H](CC)c2cccc(NS(=O)(=O)c3ccc(C(F)(F)F)cn3)c2)C(=O)O1 | – | – | 100 |
| CC(C)CN(C[C@@H](O)[C@H](CSc1ccccc1)NC(=O)O[C@@H]1C[C@@H]2CCO[C@@H]2C1)S(=O)(=O)c1ccc(CO)cc1 | Active | 0.029 | 5 |
| CC(C)CN(C[C@@H](O)[C@H](Cc1ccccc1)NC(=O)O[C@H]1CO[C@H]2OCC[C@H]21)S(=O)(=O)c1ccc(N)cc1 | Active | – | 3.4 |
| CC(C)CN(C[C@@H](O)[C@H](Cc1ccccc1)NC(=O)O[C@@H]1C[C@@H]2CCO[C@@H]2C1)S(=O)(=O)c1ccc(CO)cc1 | Active | 0.0035 | 1.4 |
| COc1ccc(S(=O)(=O)N(CC(C)C)C[C@@H](O)[C@H](Cc2ccccc2)NC(=O)C[C@H]2CO[C@H]3OCC[C@@H]23)cc1 | Active | – | 480 |
